Molecular target: human NaV 1.8 (Homo sapiens, UniProt Q9Y5Y9)
Assay: E-VIPR assay detecting and measuring NaV inhibition properties
Assay type: cell-based
Settings: HEK cells expressing truncated human NaV 1.8; in the presence of human serum (compound numbers followed by *); read-out: IC50 in the E-VIPR Assay, performed in the presence of human serum
Procedure, shortened: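 HEK cells expressing truncated, fully active human NaV1.8, with KIR2.1 BacMam co-transduction, were loaded with CC2-DMPE/DiSBAC6(3) voltage-sensing dyes for 20 min at room temperature. Compounds were tested in 11-point 3-fold dilutions (300 nM top final), optionally with 25% human serum, under electrical stimulation with FRET read-out.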

Sequence of human NaV 1.8 (Q9Y5Y9 126-399 limits assumed): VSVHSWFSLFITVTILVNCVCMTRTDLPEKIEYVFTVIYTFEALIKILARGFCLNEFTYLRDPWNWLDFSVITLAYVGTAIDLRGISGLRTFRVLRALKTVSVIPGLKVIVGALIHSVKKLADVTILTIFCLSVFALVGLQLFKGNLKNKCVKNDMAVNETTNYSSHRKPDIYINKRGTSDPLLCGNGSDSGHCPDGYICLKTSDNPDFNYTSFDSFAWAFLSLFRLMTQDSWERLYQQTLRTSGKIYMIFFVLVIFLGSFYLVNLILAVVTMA
Sequence of human NaV 1.8 (Q9Y5Y9 660-890 limits assumed): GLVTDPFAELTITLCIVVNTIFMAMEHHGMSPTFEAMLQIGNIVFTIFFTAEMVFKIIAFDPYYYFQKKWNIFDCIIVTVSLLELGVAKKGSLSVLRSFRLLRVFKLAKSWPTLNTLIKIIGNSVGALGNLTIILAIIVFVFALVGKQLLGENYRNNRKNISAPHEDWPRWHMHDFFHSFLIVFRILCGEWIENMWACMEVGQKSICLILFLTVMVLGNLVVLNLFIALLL
Sequence of human NaV 1.8 (Q9Y5Y9 1148-1722 limits assumed): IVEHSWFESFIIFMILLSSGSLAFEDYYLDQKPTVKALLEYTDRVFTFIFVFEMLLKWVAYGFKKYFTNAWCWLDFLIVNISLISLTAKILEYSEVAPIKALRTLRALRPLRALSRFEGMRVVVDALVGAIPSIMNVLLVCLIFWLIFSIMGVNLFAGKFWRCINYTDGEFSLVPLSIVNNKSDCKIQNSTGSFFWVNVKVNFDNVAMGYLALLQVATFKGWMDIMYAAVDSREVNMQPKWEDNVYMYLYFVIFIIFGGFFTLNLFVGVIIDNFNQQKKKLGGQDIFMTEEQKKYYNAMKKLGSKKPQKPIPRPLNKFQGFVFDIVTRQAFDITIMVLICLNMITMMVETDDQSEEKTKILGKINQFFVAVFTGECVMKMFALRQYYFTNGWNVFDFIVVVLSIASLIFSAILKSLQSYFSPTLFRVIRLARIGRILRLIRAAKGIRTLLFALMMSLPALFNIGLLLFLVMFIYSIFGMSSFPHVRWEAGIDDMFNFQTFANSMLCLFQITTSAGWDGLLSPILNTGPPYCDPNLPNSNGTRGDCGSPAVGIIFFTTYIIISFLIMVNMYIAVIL

In the case of CCOc1c([C@H]2C[C@@](C)(C(F)(F)F)O[C@@H]2C(=O)Nc2ccnc(C(O)CO)c2)ccc(F)c1F (single isomer, unassigned) [Compound 709], the IC50 is reported as at least 1 µM.

Same assay, conditions: HEK cells expressing truncated human NaV 1.8; no human serum; read-out: IC50 in the E-VIPR Assay

First: COc1c([C@H]2[C@H](C(=O)Nc3ccn4c(C)ncc4c3)O[C@@](C)(C(F)(F)F)[C@H]2C)ccc(F)c1F [Compound 315, (2R,3S,4S,5R)-3-(3,4-difluoro-2-methoxyphenyl)-4,5-dimethyl-N-(3-methylimidazo[1,5-a]pyridin-7-yl)-5-(trifluoromethyl)-tetrahydrofuran-2-carboxamide]
Second: COc1c([C@H]2[C@H](C(=O)Nc3ccnc(N(C)C)c3)O[C@@](C)(C(F)(F)F)[C@H]2C)ccc(F)c1F [Compound 320, (2R,3S,4S,5R)-3-(3,4-difluoro-2-methoxyphenyl)-N-(2-(dimethylamino)-pyridin-4-yl)-4,5-dimethyl-5-(trifluoromethyl)-tetrahydrofuran-2-carboxamide]
The IC50 of the first is lower: under 0.01 µM for the first, 0.01 to 0.1 µM for the second.

First: C[C@H]1[C@@H](c2ccc(F)c(F)c2O[C@H]2C[C@@H](O)C2)[C@H](C(=O)Nc2ccnnc2)O[C@@]1(C)C(F)(F)F [Compound 658, (2R,3S,4S,5R)-3-(3,4-difluoro-2-((1s,3R)-3-hydroxycyclobutoxy)phenyl)-4,5-dimethyl-N-(pyridazin-4-yl)-5-(trifluoromethyl)tetrahydrofuran-2-carboxamide]
Second: CCOc1c([C@@H]2[C@@H](C(=O)Nc3ccnc(S(C)(=N)=O)c3)O[C@](C)(C(F)(F)F)[C@@H]2C)ccc(F)c1F (single isomer, unassigned) [Compound 10]
The IC50 of the first is lower: 0.01 to 0.1 µM for the first, 0.1 to 1 µM for the second. The first is the more potent here.

COc1c([C@H]2[C@H](C(=O)Nc3ccnc(S(=O)(=O)N(C)C)c3)O[C@@](C)(C(F)(F)F)[C@H]2C)ccc(F)c1F (stereo in doubt) [Compound 449, rel-(2R,3S,4S,5R)-3-(3,4-difluoro-2-methoxyphenyl)-N-(2-(N,N-dimethylsulfamoyl)pyridin-4-yl)-4,5-dimethyl-5-(trifluoromethyl)tetrahydrofuran-2-carboxamide] and CCOc1c(C2C(C(=O)Nc3ccnc(S(C)(=O)=NC)c3)OC(C)(C(F)(F)F)C2C)ccc(F)c1F (stereo not shown) [Compound 113, N-[2-(N,S-dimethylsulfonimidoyl)-4-pyridyl]-3-(2-ethoxy-3,4-difluoro-phenyl)-4,5-dimethyl-5-(trifluoromethyl)tetrahydrofuran-2-carboxamide] cannot be ordered by IC50: under 0.01 µM for the first, under 0.01 µM for the second.

Compared with CCOc1c([C@@H]2[C@@H](C(=O)Nc3cncc(S(C)(=O)=O)c3)O[C@](C)(C(F)(F)F)[C@@H]2C)ccc(F)c1F (stereo in doubt) [Compound 106, rel-(2S,3R,4R,5S)-3-(2-ethoxy-3,4-difluorophenyl)-4,5-dimethyl-N-(5-(methylsulfonyl)pyridin-3-yl)-5-(trifluoromethyl)tetrahydrofuran-2-carboxamide], CCOc1c([C@H]2[C@H](C(=O)Nc3ccnc(S(C)(=N)=O)c3)O[C@@](C)(C(F)(F)F)[C@H]2C)ccc(F)c1C (relative stereo) [Compound 125, rel-(2R,3S,4S,5R)-3-(2-ethoxy-4-fluoro-3-methylphenyl)-4,5-dimethyl-N-(2-(S-methylsulfonimidoyl)pyridin-4-yl)-5-(trifluoromethyl)tetrahydrofuran-2-carboxamide] is lower in IC50: 0.1 to 1 µM for the first, under 0.01 µM for the second.

COCC(O)c1cc(NC(=O)[C@@H]2O[C@@](C)(C(F)(F)F)[C@@H](C)[C@H]2c2ccc(F)c(F)c2OCCN2CC(F)C2)ccn1 (single isomer, unassigned) [Compound 608, rel-(2R*,3S*,4S*,5R*)-3-(3,4-difluoro-2-(2-(3-fluoroazetidin-1-yl)ethoxy)phenyl)-N-(2-(1-hydroxy-2-methoxyethyl)pyridin-4-yl)-4,5-dimethyl-5-(trifluoromethyl)tetrahydrofuran-2-carboxamide] and COc1c([C@H]2[C@H](C(=O)Nc3ccnc(OC(F)F)c3)O[C@@](C)(C(F)(F)F)[C@H]2C)ccc(F)c1F [Compound 189, (2R,3S,4S,5R)-3-(3,4-difluoro-2-methoxyphenyl)-N-(2-(difluoromethoxy)pyridin-4-yl)-4,5-dimethyl-5-(trifluoromethyl)tetrahydrofuran-2-carboxamide] fall in the same range of IC50: 0.01 to 0.1 µM for the first, 0.01 to 0.1 µM for the second.

Compared with COc1c([C@H]2[C@H](C(=O)Nc3c[nH]nn3)O[C@@](C)(C(F)(F)F)[C@H]2C)ccc(F)c1F [Compound 372, (2R,3S,4S,5R)-3-(3,4-difluoro-2-methoxyphenyl)-4,5-dimethyl-N-(1H-1,2,3-triazol-4-yl)-5-(trifluoromethyl)tetrahydrofuran-2-carboxamide], COc1c([C@H]2[C@H](C(=O)Nc3cc(CO)ncn3)O[C@@](C)(C(F)(F)F)[C@H]2C)ccc(F)c1F [Compound 246, (2R,3S,4S,5R)-3-(3,4-difluoro-2-methoxyphenyl)-N-(6-(hydroxymethyl)pyrimidin-4-yl)-4,5-dimethyl-5-(trifluoromethyl)tetrahydrofuran-2-carboxamide] is lower in IC50: 0.01 to 0.1 µM for the first, under 0.01 µM for the second. The second is the more potent here.

COc1c([C@H]2[C@H](C(=O)Nc3cc(C(N)C(C)(C)O)ncc3F)O[C@@](C)(C(F)(F)F)[C@H]2C)ccc(F)c1F (single isomer, unassigned) [Compound 428, rel-(2R*,3S*,4S*,5R*)-N-(2-(1-amino-2-hydroxy-2-methylpropyl)-5-fluoropyridin-4-yl)-3-(3,4-difluoro-2-methoxyphenyl)-4,5-dimethyl-5-(trifluoromethyl)-tetrahydrofuran-2-carboxamide] and COc1c([C@H]2[C@H](C(=O)Nc3cc(C(O)CO)ncc3F)O[C@@](C)(C(F)(F)F)[C@H]2C)ccc(F)c1F (single isomer, unassigned) [Compound 199, rel-(2R*,3S*,4S*,5R*)-3-(3,4-difluoro-2-methoxyphenyl)-N-(2-(-1,2-dihydroxyethyl)-5-fluoropyridin-4-yl)-4,5-dimethyl-5-(trifluoromethyl)tetrahydrofuran-2-carboxamide] cannot be ordered by IC50: under 0.01 µM for the first, under 0.01 µM for the second.

COc1c([C@H]2[C@H](C(=O)Nc3ccnc(N4CCCNCC4=O)c3)O[C@@](C)(C(F)(F)F)[C@H]2C)ccc(F)c1F [Compound 481, (2R,3S,4S,5R)-3-(3,4-difluoro-2-methoxyphenyl)-4,5-dimethyl-N-(2-(2-oxo-1,4-diazepan-1-yl)pyridin-4-yl)-5-(trifluoromethyl)tetrahydrofuran-2-carboxamide] and [2H]C([2H])([2H])Oc1c([C@H]2[C@H](C(=O)Nc3ccnc(N4CCNCC4=O)c3)O[C@@](C)(C(F)(F)F)[C@H]2C)ccc(F)c1F [Compound 515, (2R,3S,4S,5R)-3-[3,4-difluoro-2-(trideuteriomethoxy)phenyl]-4,5-dimethyl-N-[2-(2-oxopiperazin-1-yl)-4-pyridyl]-5-(trifluoromethyl)tetrahydrofuran-2-carboxamide] fall in the same range of IC50: 0.01 to 0.1 µM for the first, 0.01 to 0.1 µM for the second.

First: COc1c([C@H]2[C@H](C(=O)Nc3ccc(C(=O)O)nc3)O[C@@](C)(C(F)(F)F)[C@H]2C)ccc(F)c1C(F)F (single isomer, unassigned) [Compound 176]
Second: COc1c([C@H]2[C@H](C(=O)Nc3ccc(C(C)(O)CF)nc3)O[C@@](C)(C(F)(F)F)[C@H]2C)ccc(F)c1F (single isomer, unassigned) [Compound 224, rel-(2R*,3S*,4S*,5R*)-3-(3,4-difluoro-2-methoxyphenyl)-N-(6-(1-fluoro-2-hydroxypropan-2-yl)pyridin-3-yl)-4,5-dimethyl-5-(trifluoromethyl)tetrahydrofuran-2-carboxamide]
The IC50 of the first is lower: under 0.01 µM for the first, 0.1 to 1 µM for the second. The first is the more potent here.

Going from COc1c([C@H]2[C@H](C(=O)Nc3cn(C(F)F)nc3C)O[C@@](C)(C(F)(F)F)[C@H]2C)ccc(F)c1F [Compound 311, (2R,3S,4S,5R)-3-(3,4-difluoro-2-methoxyphenyl)-N-(1-(difluoromethyl)-3-methyl-1H-pyrazol-4-yl)-4,5-dimethyl-5-(trifluoromethyl)tetrahydrofuran-2-carboxamide] to COc1c([C@H]2[C@H](C(=O)NCCc3cnn(C)c3)O[C@@](C)(C(F)(F)F)[C@H]2C)ccc(F)c1F [Compound 283, (2R,3S,4S,5R)-3-(3,4-difluoro-2-methoxyphenyl)-4,5-dimethyl-N-(2-(1-methyl-1H-pyrazol-4-yl)ethyl)-5-(trifluoromethyl)tetrahydrofuran-2-carboxamide], the IC50 rises from under 0.01 µM to at least 1 µM.

COc1c([C@H]2[C@H](C(=O)Nc3ccc(-n4cncn4)nc3)O[C@@](C)(C(F)(F)F)[C@H]2C)ccc(F)c1F [Compound 402, (2R,3S,4S,5R)-N-(6-(1H-1,2,4-triazol-1-yl)pyridin-3-yl)-3-(3,4-difluoro-2-methoxyphenyl)-4,5-dimethyl-5-(trifluoromethyl)-tetrahydrofuran-2-carboxamide] and CNS(=O)(=O)c1ccc(NC(=O)[C@@H]2O[C@@](C)(C(F)(F)F)[C@@H](C)[C@H]2c2ccc(F)c(F)c2OC)cn1 [Compound 236, (2R,3S,4S,5R)-3-(3,4-difluoro-2-methoxy-phenyl)-4,5-dimethyl-N-[6-(methylsulfamoyl)-3-pyridyl]-5-(trifluoromethyl)tetrahydrofuran-2-carboxamide] fall in the same range of IC50: 0.01 to 0.1 µM for the first, 0.01 to 0.1 µM for the second.

First: [2H]C([2H])([2H])Oc1c([C@H]2[C@H](C(=O)Nc3ccnc(N4CCN(C)CC4=O)c3)O[C@@](C)(C(F)(F)F)[C@H]2C)ccc(F)c1F [Compound 518, (2R,3S,4S,5R)-3-(3,4-difluoro-2-(methoxy-d3)phenyl)-4,5-dimethyl-N-(2-(4-methyl-2-oxopiperazin-1-yl)pyridin-4-yl)-5-(trifluoromethyl)tetrahydrofuran-2-carboxamide]
Second: COc1c([C@H]2[C@H](C(=O)Nc3ccnc(C(C)(O)CO)c3)OC(C)(C)[C@H]2C)ccc(F)c1F (single isomer, unassigned) [Compound 731]
The IC50 of the first is lower: under 0.01 µM for the first, 0.1 to 1 µM for the second.
